Results from patent publication US8222247B2, “Modulators of glucocorticoid receptor, AP-1, and/or NF-kappabeta activity and use thereof” (Bristol-Myers Squibb Company, priority 2006, dated 2012).
Read-outs that look alike come from different tables or passages of the source.

Tested on: AP-1 induced transcriptional activity
Experiment: Cellular Transrepressional Assay (AP-1 luciferase reporter in A549 cell, PMA activated)
Format: cell-based
Conditions: pAP-1-Luc; for AP-1 Max % inh (Cellular Transrepression Assay) / Emax: maximum inhibition, PMA; for EC50: 10 ng/ml PMA, 7 hours, read-out: AP-1 EC50, nM (Cellular Transrepression Assay); for Emax: read-out: AP-1 Max % inh (Cellular Transrepression Assay)
Protocol: Cellular Transrepressional Assay
To measure the ability of test molecules to inhibit AP-1 induced transcriptional activity we utilized an A549 cell which was stably transfected with a plasmid containing 7×AP-1 DNA binding sites (pAP-1-Luc plasmid, Stratagene Co. La Jolla, Calif.) followed by the gene for luciferase. Cells were activated with 10 ng/ml of phorbol myristic acid (PMA) plus or minus test molecules for 7 hours. After 7 hours a luciferase reagent was added to measure luciferase enzymatic activity in the cell. After a 10 minute incubation of luciferase reagent with cells, luminescence was measured in a TopCount luminescence counter. Repression of AP-1 activity was calculated as the percentage decrease in the signal induced by PMA alone. Test molecules were analyzed in the concentration range from 0.1 nM to 40 μM. EC50s were determined by using standard curve fitting methods such as Excel fit (Microsoft Co.). An EC50 is the test molecule concentration at which there is a 50% repression of the maximal inhibition of transcription, i.e. a 50% reduction of AP-1 activity.

Row | SMILES | AP-1 Max % inh (Cellular Transrepression Assay) [% inh] | EC50 [nM] | Emax (Homo sapiens, A549, 7 h) [%] | EC50 (Homo sapiens, A549, 7 h) [nM]
1 | CCN(C)C(=O)c1ccc(-c2ccc(C(c3cccc(F)c3)C(C)C(=O)Nc3nncs3)s2)cc1 (single isomer, unassigned) [Example 99, N-ethyl-4-(5-(1-(3-fluorophenyl)-2-methyl-3-oxo-3-(1,3,4-thiadiazol-2-ylamino)propyl)-2-thienyl)-N-methylbenzamide] | 49.36 | 279 |  | 
2 | CC(C(=O)Nc1nncs1)C(c1cccc(F)c1)c1ccc(-c2ccc(C(=O)N3CCOCC3)cc2)s1 (single isomer, unassigned) [Example 100, 3-(3-fluorophenyl)-2-methyl-3-(5-(4-(4-morpholinylcarbonyl)phenyl)-2-thienyl)-N-1,3,4-thiadiazol-2-ylpropanamide] |  | 8.8 | 50.6 | 
3 | CC(C(=O)Nc1nncs1)C(c1cccc(F)c1)c1ccc(-c2ccc(C(=O)N(C)C)cc2)s1 (single isomer, unassigned) [Example 103, 4-(5-(1-(3-fluorophenyl)-2-methyl-3-oxo-3-(1,3,4-thiadiazol-2-ylamino)propyl)-2-thienyl)-N,N-dimethylbenzamide] | 49.86 | 879 |  | 
4 | CC(C(=O)Nc1nncs1)C(c1cccc(F)c1)c1ccc(-c2ccc(C(=O)N(C)C)c(Cl)c2)s1 (single isomer, unassigned) [Example 104, 2-chloro-4-(5-(1-(3-fluorophenyl)-2-methyl-3-oxo-3-(1,3,4-thiadiazol-2-ylamino)propyl)-2-thienyl)-N,N-dimethylbenzamide] |  | 38.7 | 49.5 | 
5 | CN(C)C(=O)c1ccc(-c2ccc(C(c3cccc(F)c3)C(C)(C)C(=O)Nc3nccs3)s2)cc1 (stereo not shown) [Example 42, 4-(5-(1-(3-Fluorophenyl)-2,2-dimethyl-3-oxo-3-(1,3-thiazol-2-ylamino)propyl)-2-thienyl)-N,N-dimethylbenzamide] |  |  | 42.9 | 11.6
6 | CCN(C)C(=O)c1ccc(-c2ccc([C@@H](c3cccc(F)c3)[C@@H](C)C(=O)Nc3nnc(C)s3)s2)cc1 [Example 141, N-Ethyl-4-(5-((1R,2R)-1-(3-fluorophenyl)-2-methyl-3-((5-methyl-1,3,4-thiadiazol-2-yl)amino)-3-oxopropyl)-2-thienyl)-N-methylbenzamide] |  |  | 46 | 62.2
7 | CC(C)Cc1ccc(-c2ccc(C(c3cccc(F)c3)C(C)(C)C(=O)Nc3nncs3)s2)cc1 (stereo not shown) [Example 39, 3-(3-fluorophenyl)-3-(5-(4-isobutylphenyl)-2-thienyl)-2,2-dimethyl-N-1,3,4-thiadiazol-2-ylpropanamide] |  |  | 44.2 | 18.8
8 | CC(C)(C(=O)Nc1nncs1)[C@@H](c1cccc(F)c1)c1ccc(-c2ccc(C(=O)N3CCOCC3)c(F)c2)s1 [Example 83, (3R)-3-(5-(3-Fluoro-4-(4-morpholinylcarbonyl)phenyl)-2-thienyl)-3-(3-fluorophenyl)-2,2-dimethyl-N-1,3,4-thiadiazol-2-ylpropanamide] |  |  | 32.7 | 16.6
9 | CN(C)C(=O)c1ccc(-c2ccc([C@H](c3cccc(F)c3)C(C)(C)C(=O)Nc3nncs3)s2)cc1Cl [Example 66, 2-chloro-4-(5-((1R)-1-(3-fluorophenyl)-2,2-dimethyl-3-oxo-3-(1,3,4-thiadiazol-2-ylamino)propyl)-2-thienyl)-N,N-dimethylbenzamide] |  |  | 50.4 | 5.16
10 | CCN(C)C(=O)c1ccc(-c2ccc([C@@H](c3cccc(F)c3)[C@@H](C)C(=O)Nc3nncs3)s2)cc1Cl [Example 119, 2-chloro-N-ethyl-4-(5-((1R,2R)-1-(3-fluorophenyl)-2-methyl-3-oxo-3-(1,3,4-thiadiazol-2-ylamino)propyl)-2-thienyl)-N-methylbenzamide] |  |  | 47.6 | 22.7
11 | CN(C)C(=O)c1ccc(-c2ccc(C(c3ccccc3)C(C)(C)C(=O)Nc3nncs3)s2)cc1Cl (stereo not shown) [Example 86, 2-chloro-4-(5-(2,2-dimethyl-3-oxo-1-phenyl-3-(1,3,4-thiadiazol-2-ylamino)propyl)-2-thienyl)-N,N-dimethylbenzamide] | 36.20 | 53.9 |  | 
12 | CCCc1ccc(-c2ccc(C(c3cccc(F)c3)C(C)(C)C(=O)Nc3nncs3)s2)cc1 (stereo not shown) [Example 40, -(3-fluorophenyl)-2,2-dimethyl-3-(5-(4-propylphenyl)-2-thienyl)-N-1,3,4-thiadiazol-2-ylpropanamide] | 37.26 | 5.36 |  | 
13 | CC(C)(C(=O)Nc1nncs1)C(c1ccccc1)c1ccc(N2CCOCC2)nc1 (single isomer, unassigned) [Example 23, 2,2-Dimethyl-3-(6-(4-morpholinyl)-3-pyridinyl)-3-phenyl-N-1,3,4-thiadiazol-2-ylpropanamide] |  |  | 29.4 | 142
14 | CC(C)(C(=O)Nc1nc(Cc2ccc(-c3ccncc3)cc2)cs1)C(c1ccccc1)c1ccncc1 (stereo not shown) [Example 5, 2,2-dimethyl-3-phenyl-3-(4-pyridinyl)-N-(4-(4-(4-pyridinyl)benzyl)-1,3-thiazol-2-yl)propanamide] |  |  | 89.9 | 18.7
15 | C[C@@H](C(=O)Nc1nncs1)[C@H](c1cccc(F)c1)c1ccc(-c2ccc(C(=O)N3CCCC3)c(F)c2)s1 [Example 116, (2R,3R)-3-(3-fluorophenyl)-3-(5-(3-fluoro-4-(1-pyrrolidinylcarbonyl)phenyl)-2-thienyl)-2-methyl-N-1,3,4-thiadiazol-2-ylpropanamide] |  |  | 40.8 | 67.7
16 | CCN(C)C(=O)c1ccc(-c2ccc(C(c3ccccc3)C(C)C(=O)Nc3nncs3)s2)cc1 (single isomer, unassigned) [Example 150, N-ethyl-N-methyl-4-(5-(2-methyl-3-oxo-1-phenyl-3-(1,3,4-thiadiazol-2-ylamino)propyl)-2-thienyl)benzamide] |  | 17.5 | 57.2 | 
17 | CCCc1ccc(-c2ccc(C(c3ccccc3)C(C)(C)C(=O)Nc3nncs3)cn2)cc1 (stereo not shown) [Example 30, 2,2-dimethyl-3-phenyl-3-(6-(4-propylphenyl)-3-pyridinyl)-N-1,3,4-thiadiazol-2-ylpropanamide] |  |  | 39.4 | 49
18 | CN(C)C(=O)c1ccc(-c2ccc([C@H](c3cccc(F)c3)C(C)(C)C(=O)Nc3nncs3)s2)cc1 [Example 65, 4-(5-((1R)-1-(3-fluorophenyl)-2,2-dimethyl-3-oxo-3-(1,3,4-thiadiazol-2-ylamino)propyl)-2-thienyl)-N,N-dimethylbenzamide] |  |  | 49.6 | 7
19 | C[C@@H](C(=O)Nc1nncs1)[C@H](c1cccc(F)c1)c1ccc(-c2ccc(C(=O)N3CCCC3)cc2)s1 [Example 118, (2R,3R)-3-(3-fluorophenyl)-2-methyl-3-(5-(4-(1-pyrrolidinylcarbonyl)phenyl)-2-thienyl)-N-1,3,4-thiadiazol-2-ylpropanamide] |  |  | 55.3 | 61.6
20 | CCN(C)C(=O)c1ccc(-c2ccc([C@@H](c3cccc(F)c3)[C@@H](C)C(=O)Nc3nncs3)s2)cc1F [Example 120, N-ethyl-2-fluoro-4-(5-((1R,2R)-1-(3-fluorophenyl)-2-methyl-3-oxo-3-(1,3,4-thiadiazol-2-ylamino)propyl)-2-thienyl)-N-methylbenzamide] |  |  | 42.9 | 22.9
21 | CN(C)C(=O)c1ccc(-c2ccc(C(c3ccccc3)C(C)(C)C(=O)Nc3nncs3)cn2)cc1 (stereo not shown) [Example 32, 4-(5-(2,2-dimethyl-3-oxo-1-phenyl-3-(1,3,4-thiadiazol-2-ylamino)propyl)-2-pyridinyl)-N,N-dimethylbenzamide] |  |  | 43.1 | 73.9
22 | C[C@@H](C(=O)Nc1nncs1)[C@H](c1cccc(F)c1)c1ccc(-c2ccc(C(=O)N(C)C)cc2)s1 [Example 117, 4-(5-((1R,2R)-1-(3-fluorophenyl)-2-methyl-3-oxo-3-(1,3,4-thiadiazol-2-ylamino)propyl)-2-thienyl)-N,N-dimethylbenzamide] |  |  | 56.5 | 14.4
23 | CC(C(=O)Nc1nncs1)C(c1ccccc1)c1ccc(-c2ccc(C(=O)N(C)C)c(Cl)c2)s1 (single isomer, unassigned) [Example 149, 2-chloro-N,N-dimethyl-4-(5-(2-methyl-3-oxo-1-phenyl-3-(1,3,4-thiadiazol-2-ylamino)propyl)-2-thienyl)benzamide] | 54.20 | 216 |  | 
24 | CC(C)(C(=O)Nc1nncs1)C(c1ccccc1)c1ccc(-c2ccc(C(=O)N3CCOCC3)c(Cl)c2)s1 (stereo not shown) [Example 52, 3-(5-(3-chloro-4-(4-morpholinylcarbonyl)phenyl)-2-thienyl)-2,2-dimethyl-3-phenyl-N-1,3,4-thiadiazol-2-ylpropanamide] |  |  | 38.5 | 12.1
25 | CC(C)Oc1ccc(-c2ccc(C(c3ccccc3)C(C)(C)C(=O)Nc3nncs3)cn2)cc1 (stereo not shown) [Example 33, 3-(6-(4-isopropoxyphenyl)-3-pyridinyl)-2,2-dimethyl-3-phenyl-N-1,3,4-thiadiazol-2-ylpropanamide] |  |  | 37.7 | 24
26 | CN(C)C(=O)c1ccc(-c2ccc(C(c3cc(F)cc(F)c3)C(C)(C)C(=O)Nc3nncs3)s2)cc1 (stereo not shown) [Example 90, 4-(5-(1-(3,5-difluorophenyl)-2,2-dimethyl-3-oxo-3-(1,3,4-thiadiazol-2-ylamino)propyl)-2-thienyl)-N,N-dimethylbenzamide] |  |  | 32.7 | 20.6
